Assay results published in ChEMBL document CHEMBL1909046, “DrugMatrix in vitro pharmacology data”.

Columns and labels:
[1] = target: T1, Type-2 angiotensin II receptor (Homo sapiens, UniProt P50052); assay: biochemical; assay type: cell-based, CHO-K1
T1 sequence (P50052 whole entry): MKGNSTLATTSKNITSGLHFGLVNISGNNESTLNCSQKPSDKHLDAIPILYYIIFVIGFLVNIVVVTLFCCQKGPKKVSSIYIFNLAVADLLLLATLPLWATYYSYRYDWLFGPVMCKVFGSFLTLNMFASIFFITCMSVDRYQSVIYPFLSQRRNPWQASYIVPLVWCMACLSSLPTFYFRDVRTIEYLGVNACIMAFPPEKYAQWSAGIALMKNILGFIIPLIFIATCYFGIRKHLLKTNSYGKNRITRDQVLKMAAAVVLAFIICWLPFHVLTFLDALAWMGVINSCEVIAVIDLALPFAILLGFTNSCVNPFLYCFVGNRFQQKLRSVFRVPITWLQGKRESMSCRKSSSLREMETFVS

Calcitonin receptor = target: T2, Calcitonin receptor (Homo sapiens, UniProt P30988); assay type: cell membranes, Membrane; conditions: t47d
T2 sequence (P30988 whole entry): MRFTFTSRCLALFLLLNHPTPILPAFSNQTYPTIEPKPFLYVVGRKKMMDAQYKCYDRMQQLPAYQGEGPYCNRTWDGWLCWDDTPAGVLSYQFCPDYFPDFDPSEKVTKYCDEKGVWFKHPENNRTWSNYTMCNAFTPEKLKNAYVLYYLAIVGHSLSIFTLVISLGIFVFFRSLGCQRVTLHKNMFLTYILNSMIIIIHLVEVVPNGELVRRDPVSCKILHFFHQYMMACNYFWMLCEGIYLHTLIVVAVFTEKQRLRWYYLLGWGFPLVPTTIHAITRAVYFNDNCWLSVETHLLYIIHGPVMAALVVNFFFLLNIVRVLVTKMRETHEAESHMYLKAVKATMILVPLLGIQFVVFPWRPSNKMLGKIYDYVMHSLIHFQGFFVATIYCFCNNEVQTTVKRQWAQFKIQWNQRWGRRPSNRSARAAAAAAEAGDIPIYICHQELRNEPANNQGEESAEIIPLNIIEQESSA

Neutrophil elastase = target: T3, Neutrophil elastase (Homo sapiens, UniProt P08246); assay type: tissue-based;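 note: inhibition of neutrophil elastase enzyme activity, measured with a p-nitroanilide-linked peptide substrate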
T3 sequence (P08246 whole entry): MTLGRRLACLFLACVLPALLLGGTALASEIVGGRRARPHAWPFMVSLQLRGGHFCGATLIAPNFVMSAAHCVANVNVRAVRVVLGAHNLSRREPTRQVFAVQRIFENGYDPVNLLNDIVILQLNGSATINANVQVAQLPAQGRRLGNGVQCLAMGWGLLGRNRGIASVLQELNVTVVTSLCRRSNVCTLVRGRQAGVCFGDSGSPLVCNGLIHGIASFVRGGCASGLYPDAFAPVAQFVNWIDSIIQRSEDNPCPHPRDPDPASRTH

[2] = target: Tyrosine-protein kinase Fyn (Homo sapiens, UniProt P06241); assay: biochemical; assay type: cell-based, Insect cells;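 note: enzymatic inhibition of Fyn kinase activity measured with Poly(Glu:Tyr) as the phosphorylation substrate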
[3] = target: T4, Alpha-2A adrenergic receptor (Homo sapiens, UniProt P08913); assay type: cell membranes, Sf9, Membrane
T4 sequence (P08913 whole entry): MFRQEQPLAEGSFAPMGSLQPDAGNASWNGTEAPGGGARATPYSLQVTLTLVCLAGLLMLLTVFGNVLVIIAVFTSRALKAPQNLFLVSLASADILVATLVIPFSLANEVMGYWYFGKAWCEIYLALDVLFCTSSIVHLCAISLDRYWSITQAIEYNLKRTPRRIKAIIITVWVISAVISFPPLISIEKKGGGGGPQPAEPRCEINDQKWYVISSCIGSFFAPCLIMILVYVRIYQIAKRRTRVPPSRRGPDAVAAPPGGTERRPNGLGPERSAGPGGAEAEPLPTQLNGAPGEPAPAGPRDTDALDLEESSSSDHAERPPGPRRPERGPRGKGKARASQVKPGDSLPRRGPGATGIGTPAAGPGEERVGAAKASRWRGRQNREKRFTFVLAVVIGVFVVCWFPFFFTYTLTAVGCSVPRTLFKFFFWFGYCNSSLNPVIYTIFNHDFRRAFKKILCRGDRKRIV
Note: in other assays of this panel Not Active means under 50% inhibition at 10 µM.

Chain of Tyrosine-protein kinase Fyn (P06241 whole entry): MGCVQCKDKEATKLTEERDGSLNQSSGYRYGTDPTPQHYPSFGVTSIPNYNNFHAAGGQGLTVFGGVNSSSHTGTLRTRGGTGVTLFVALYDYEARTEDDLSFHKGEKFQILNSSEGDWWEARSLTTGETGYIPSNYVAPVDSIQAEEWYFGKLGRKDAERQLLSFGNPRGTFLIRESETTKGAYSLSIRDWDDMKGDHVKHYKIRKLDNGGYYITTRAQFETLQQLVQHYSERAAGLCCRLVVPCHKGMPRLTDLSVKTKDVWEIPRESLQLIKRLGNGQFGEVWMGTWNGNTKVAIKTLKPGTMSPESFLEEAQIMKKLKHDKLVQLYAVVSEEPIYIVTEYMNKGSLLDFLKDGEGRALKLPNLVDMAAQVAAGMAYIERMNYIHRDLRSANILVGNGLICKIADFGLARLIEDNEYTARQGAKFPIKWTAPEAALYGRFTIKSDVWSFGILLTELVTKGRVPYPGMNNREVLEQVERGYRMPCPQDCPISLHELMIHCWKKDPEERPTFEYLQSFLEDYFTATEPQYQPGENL

Row | Compound | IC50 ([1]; cho-k1) | IC50 (Calcitonin receptor) | IC50 (Neutrophil elastase) | IC50 ([2]; insect cells) | IC50 ([3]; sf9) | further results
1 | CCCCC(=O)N(Cc1ccc(-c2ccccc2-c2nnn[nH]2)cc1)[C@H](C(=O)O)C(C)C | Not Active | Not Active | Not Active | Not Active | Not Active | –
2 | O=C(O)COc1ccc(C(=O)c2cccs2)c(Cl)c1Cl | Not Active | Not Active | Not Active | Not Active | Not Active | –
3 | CN1[C@@H]2CC[C@H]1C[C@@H](OC(c1ccccc1)c1ccccc1)C2 [BENZTROPINE] | Not Active | Not Active | Not Active | Not Active | – | –
4 | C[C@@](Cc1ccc(O)c(O)c1)(NN)C(=O)O.O [CARBIDOPA] | Not Active | Not Active | Not Active | – | Not Active | IC50 ([2]; read-out: IC50): 3.73 µM
5 | CN1CCN(C2=Nc3cc(Cl)ccc3Nc3ccccc32)CC1 [CLOZAPINE] | Not Active | Not Active | Not Active | Not Active | – | –
6 | CC(C)NC[C@@H](O)COc1cccc2ccccc12 [DEXPROPRANOLOL] | Not Active | Not Active | Not Active | Not Active | Not Active | –
7 | CC(C)NC[C@H](O)COc1cccc2ccccc12 [LEVOPROPRANOLOL] | Not Active | Not Active | Not Active | Not Active | Not Active | –
8 | O=C(O)CCCCC1CCSS1 (stereo not drawn) [LIPOIC ACID, ALPHA] | Not Active | Not Active | Not Active | Not Active | Not Active | –
9 | CN(C)C(=O)C(CCN1CCC(O)(c2ccc(Cl)cc2)CC1)(c1ccccc1)c1ccccc1 [LOPERAMIDE] | Not Active | Not Active | Not Active | Not Active | Not Active | –
10 | Clc1ccc(COC(Cn2ccnc2)c2ccc(Cl)cc2Cl)c(Cl)c1 (centres undefined) [MICONAZOLE] | – | Not Active | Not Active | – | – | IC50 ([1]; read-out: IC50): 24 µM; Ki ([1]; read-out: Ki): 7.78 µM; IC50 ([2]; read-out: IC50): 4.16 µM; IC50 ([3]; read-out: IC50): 3.97 µM; Ki ([3]; read-out: Ki): 1.49 µM
11 | Oc1ccc2c3c1O[C@H]1[C@@H](O)CC[C@@]4(O)[C@@H](C2)N(CC2CCC2)CC[C@]314 [NALBUPHINE] | Not Active | Not Active | Not Active | Not Active | Not Active | –
12 | C[C@]12C=CC(=O)C=C1CC[C@@H]1[C@@H]2C(=O)C[C@@]2(C)[C@H]1CC[C@]2(O)C(=O)CO [PREDNISONE] | Not Active | Not Active | Not Active | Not Active | Not Active | –
13 | OCCOCCN1CCN(C2=Nc3ccccc3Sc3ccccc32)CC1 [QUETIAPINE] | Not Active | Not Active | Not Active | Not Active | – | –
14 | COC(=O)[C@H]1[C@H]2C[C@@H]3c4[nH]c5cc(OC)ccc5c4CCN3C[C@H]2C[C@@H](OC(=O)c2cc(OC)c(OC)c(OC)c2)[C@@H]1OC [RESERPINE] | Not Active | Not Active | Not Active | Not Active | Not Active | –
15 | O=C(O)c1ccccc1O [SALICYLIC ACID] | Not Active | Not Active | Not Active | Not Active | Not Active | –
16 | C[S+]([O-])c1ccc(-c2nc(-c3ccncc3)c(-c3ccc(F)cc3)[nH]2)cc1 (centres undefined) [SB-203580] | Not Active | Not Active | Not Active | – | Not Active | –
17 | CC1CCC(NC(=O)N(CCCl)N=O)CC1 (centres undefined) [SEMUSTINE] | Not Active | Not Active | Not Active | Not Active | – | IC50 ([3]; read-out: IC50): 4.81 µM; Ki ([3]; read-out: Ki): 1.8 µM
18 | O=C1C[C@@H]2OCC=C3CN4CC[C@]56c7ccccc7N1[C@H]5[C@H]2[C@H]3C[C@H]46 [STRYCHNINE] | Not Active | Not Active | Not Active | Not Active | Not Active | –
19 | C[N+](C)(C)CCOC(=O)CCC(=O)OCC[N+](C)(C)C.[Cl-].[Cl-] [SUCCINYLCHOLINE CHLORIDE] | Not Active | Not Active | Not Active | Not Active | Not Active | –
20 | Nc1ccc(S(=O)(=O)NC(=O)c2ccccc2)cc1 [SULFABENZAMIDE] | Not Active | Not Active | Not Active | Not Active | Not Active | –
21 | CCCCCCCCNC(C)C(O)c1ccc(SC(C)C)cc1 (centres undefined) [SULOCTIDIL] | Not Active | Not Active | Not Active | – | – | IC50 ([2]; read-out: IC50): 0.722 µM; IC50 ([3]; read-out: IC50): 2.02 µM; Ki ([3]; read-out: Ki): 0.759 µM
22 | O=c1[nH]c(=O)n(C2CCCO2)cc1F (centres undefined) [TEGAFUR] | Not Active | Not Active | Not Active | Not Active | Not Active | –
23 | CC(=N)S [THIOACETAMIDE] | Not Active | Not Active | Not Active | Not Active | Not Active | –
24 | Cc1ccc(C(=O)c2ccc(CC(=O)O)n2C)cc1 [TOLMETIN] | Not Active | Not Active | Not Active | Not Active | Not Active | –
25 | CC(=O)OCC(COC(C)=O)OC(C)=O [TRIACETIN] | Not Active | Not Active | Not Active | Not Active | Not Active | –
26 | CN1CCN(CCCN2c3ccccc3Sc3ccc(C(F)(F)F)cc32)CC1 [TRIFLUOPERAZINE] | Not Active | Not Active | Not Active | Not Active | Not Active | –
27 | TRANSPLATIN | Not Active | Not Active | Not Active | – | Not Active | Ki ([1]; cho-k1): Not Active; Ki (Calcitonin receptor): Not Active; Ki (Neutrophil elastase): Not Active; IC50 ([2]; insect cells, read-out: IC50): 0.565 µM; Ki ([3]; sf9): Not Active
28 | ZIRCONIUM(IV) CHLORIDE | Not Active | Not Active | Not Active | Not Active | Not Active | Ki ([1]; cho-k1): Not Active; Ki (Calcitonin receptor): Not Active; Ki (Neutrophil elastase): Not Active; Ki ([2]; insect cells): Not Active; Ki ([3]; sf9): Not Active
